From patent publication US20240261272A1, “LPA1 ANTAGONISTS FOR TREATING INTERSTITIAL LUNG DISEASE” (Bristol-Myers Squibb Company, priority 2022, published 2024)

Key:
[1] = Phase 1 Part A single ascending dose (SAD) study in healthy participants: safety, blood pressure; assay type: in vivo, human; parameters: Mean DBP: unit not given here
Procedure: The study was performed in 3 parts in 112 healthy male and female participants, including 24 Japanese participants. Female participants were to be not of childbearing potential. The present study was designed to evaluate the safety and tolerability, PK, and exploratory PD of an oral suspension of Compound A. Parts A and B (Cohort B1 only) enrolled healthy participants and was conducted at a site in The Netherlands and Part B (Cohort B2 to B5) enrolled healthy non-Japanese participants and was conducted at a site in the United Kingdom (UK). Part C enrolled healthy Japanese participants and was conducted at the same site in the UK.
Part A was an SAD study in a planned number of 6 sequential dose escalation cohorts (3, 10, 30, 100, 150, or 250 mg) of 8 healthy participants (6 active+2 placebo) each, under fasted conditions. Eligible participants in Part A (excluding those in Cohort A7 [food effect (FE)/pH cohort]) received a single administration of study drug (Compound A or placebo) under fasted conditions. In Cohort A1 to Cohort A6, sentinel dosing was employed (1 active+1 placebo, followed after 48 hours by the remaining participants of the cohort [5 active+1 placebo]). […] In addition to the 6 ascending dose cohorts, a cohort of 6 healthy participants (Cohort A7; 6 active, 100 mg Compound A) was included to assess the effect of food and pH on the bioavailability of Compound A in a 3-period, open-label, fixed-sequence, crossover design (FE/pH cohort).
Physical examinations, vital sign measurements (including orthostasis testing in Cohort A6, Cohort B3 to B5, and C1 to C3 at selected time points), 12-lead electrocardiogram (ECG), and clinical laboratory evaluations were performed at selected times throughout the study. In addition, Holter monitoring was performed for the first 24 hours post dose on Day 1 in Part A (not in FE/pH cohort), and also for the first 24 hours post dose on Day 1 and Day 14 in Parts B and C. Participants were closely monitored for adverse events (AEs). Blood samples were collected for up to 14 days (follow-up visit) after (last) study drug administration for PK analysis. In addition, blood and urine were collected for exploratory biomarker assessments and for biobanking of samples for potential analyses. Urine was collected for potential PK analysis for up to 96 hours after a single dose of Compound A or placebo was administered in the SAD part, and for up to 24 hours after the first (morning) dose of study drug on Day 1 and for up to 24 hours after the last (morning) dose of study drug on Day 14 in the MAD parts.

[2] = Phase 2 study, PPF cohort: safety, adverse events, prespecified blood pressure reduction criteria, dose reductions; assay type: in vivo, human; details: for Asymptomatic blood pressure reduction, patients (%) / Asymptomatic blood pressure reduction, patients, no. / Symptomatic blood pressure reduction, patients (%) / Symptomatic blood pressure reduction, patients, no.: prespecified criteria
Procedure: A total of 123 participants with PPF were randomized. Participants (age ≥21 years) were randomized (1:1:1) to receive 30 mg or 60 mg Compound A or PBO twice daily for 26 weeks. […] Immunosuppressive medications (mycophenolate mofetil, mycophenolic acid, azathioprine and/or tacrolimus) were permitted only if dosing is stable for ≥6 months prior to screening. If receiving antifibrotic agents pirfenidone or nintedanib, patients had to receive a stable dosage for ≥3 months prior to screening and during the screening period; if not receiving pirfenidone or nintedanib, patients had to be naive to both drugs or not have received either 4 weeks prior to Day 1. A total of 47 (38.2%) subjects were receiving antifibrotic treatment (with or without immunosuppression therapy). Of those subjects, 34 were being treated with nintedanib and 13 with pirfenidone. Participants were stratified by usual interstitial pneumonia (UIP) pattern (presence versus absence) and background therapy (antifibrotics +/−ILD-targeted immunosuppression versus ILD-targeted immunosuppression alone versus none).UIP pattern was present in 52% of subjects and unclassifiable ILD was he most common disease categorization.
Patient is experiencing any of the following, confirmed by retest within 15 minutes: • Seated systolic blood pressure <85 mmHg • Seated diastolic blood pressure <55 mmHg • Orthostatic hypotension
Patient is experiencing symptoms that, in the investigator's opinion, could be associated with a reduction in blood pressure and is also experiencing at least one of the following, confirmed by retest within 15 minutes: • Seated systolic blood pressure <100 mmHg or seated diastolic blood pressure <60 mmHg • Decrease of seated systolic blood pressure of ≥20 mmHg from the previous visit or decrease of seated diastolic blood pressure of ≥10 mmHg from the previous visit • Orthostatic hypotension • Orthostatic tachycardia

For `CCCN(C)C(=O)OCc1c(-c2ccc(O[C@H]3CCC[C@H](C(=O)O)C3)c(C)n2)nnn1C` [Compound A, (1S,3S)-3-((2-methyl-6-(1-methyl-5-(((methyl(propyl)carbamoyl)-oxy)methyl)-1H-1,2,3-triazol-4-yl)pyridin-3-yl)oxy)cyclohexane-1-carboxylic acid], the “Mean DBP” value ([1]; 100 mg Fasted + Famotidine, D 1 2 h) was 67.2, the “Mean DBP” value ([1]; 100 mg Fasted + Famotidine, D 1 4 h) was 65.3 and the “Mean DBP” value ([1]; 100 mg Fasted + Famotidine, D 1 8 h) was 63.2. For the same compound, the “Mean DBP” value ([1]; 100 mg Fasted + Famotidine, D 2 24 h) was 71.7, the “Mean DBP” value ([1]; 100 mg Fasted, D 1 2 h) was 67.2 and the “Mean DBP” value ([1]; 100 mg Fasted, D 1 4 h) was 64.2. For the same compound, the “Mean DBP” value ([1]; 100 mg Fasted, D 1 8 h) was 63.0, the “Mean DBP” value ([1]; 100 mg Fasted, D 2 24 h) was 69.3 and the “Mean DBP” value ([1]; 100 mg Fed, D 1 2 h) was 57.2. The “Mean DBP” value ([1]; 100 mg Fed, D 1 4 h) was 58.2, the “Mean DBP” value ([1]; 100 mg Fed, D 1 8 h) was 58.8 and the “Mean DBP” value ([1]; 100 mg Fed, D 2 24 h) was 69.3. The “Mean DBP” value ([1]; SAD 3 mg, D 1 2 h) was 68.3, the “Mean DBP” value ([1]; SAD 3 mg, D 1 4 h) was 69.5 and the “Mean DBP” value ([1]; SAD 3 mg, D 1 8 h) was 68.0. For the same compound, the “Mean DBP” value ([1]; SAD 3 mg, D 2 24 h) was 68.7, the “Mean DBP” value ([1]; SAD 10 mg, D 1 2 h) was 67.7 and the “Mean DBP” value ([1]; SAD 10 mg, D 1 4 h) was 68.7. For the same compound, the “Mean DBP” value ([1]; SAD 10 mg, D 1 8 h) was 63.0, the “Mean DBP” value ([1]; SAD 10 mg, D 2 24 h) was 71.7 and the “Mean DBP” value ([1]; SAD 30 mg, D 1 2 h) was 66.2. The “Mean DBP” value ([1]; SAD 30 mg, D 1 4 h) was 65.2, the “Mean DBP” value ([1]; SAD 30 mg, D 1 8 h) was 65.2 and the “Mean DBP” value ([1]; SAD 30 mg, D 2 24 h) was 71.0. The “Mean DBP” value ([1]; SAD 100 mg, D 1 2 h) was 59.0, the “Mean DBP” value ([1]; SAD 100 mg, D 1 4 h) was 58.7 and the “Mean DBP” value ([1]; SAD 100 mg, D 1 8 h) was 56.3. The “Mean DBP” value ([1]; SAD 100 mg, D 2 24 h) was 66.0, the “Mean DBP” value ([1]; SAD 150 mg, D 1 2 h) was 58.2 and the “Mean DBP” value ([1]; SAD 150 mg, D 1 4 h) was 56.0. The “Mean DBP” value ([1]; SAD 150 mg, D 1 8 h) was 57.8, the “Mean DBP” value ([1]; SAD 150 mg, D 2 24 h) was 66.2 and the “dose-limiting events (in words)” value ([1]; SAD Cohort A6, 250 mg, sentinel participants) was “dose-limiting events observed in a sentinel participant”. For the same compound, the “effect on SBP and DBP (in words)” value ([1]; SAD cohorts) was “decreased SBP and DBP dose dependently, reversibly, and mostly asymptomatically”, the “safety and tolerability (in words)” value ([1]; single and multiple dose oral administration to healthy participants) was “generally safe and well tolerated” and the “day-1 blood pressure reduction (in words)” value [2] was “dose dependent day-1 blood pressure reduction”. For the same compound, the “hepatobiliary toxicity (in words)” value [2] was “No hepatobiliary toxicity”, the “tolerability and safety findings (in words)” value [2] was “well-tolerated, demonstrated no unexpected safety findings” and the “Dose dependent low BP thresholds ("events")” value ([2]; 30 mg) was 30%. The “≥1 TEAE related to study drug, no.” value ([2]; 30 mg (n = 40)) was 7, the “≥1 TEAE, no.” value ([2]; 30 mg (n = 40)) was 33 and the “≥1 TESAE, no.” value ([2]; 30 mg (n = 40)) was 4. The “≥1 TEAE related to study drug, no.” value ([2]; 60 mg (n = 42)) was 11, the “≥1 TEAE, no.” value ([2]; 60 mg (n = 42)) was 28 and the “≥1 TESAE, no.” value ([2]; 60 mg (n = 42)) was 5. The “Orthostatic hypotension (asymptomatic and symptomatic), comparison of groups (in words)” value ([2]; 60 mg group) was “higher in the 60 mg group than for other groups”, the “Dose reductions, patients (%)” value ([2]; 30-mg Compound A (n = 40)) was “(15.0) %” and the “Dose reductions, patients, no.” value ([2]; 30-mg Compound A (n = 40)) was 6. For the same compound, the “Orthostatic hypotension (under asymptomatic blood pressure reduction), patients (%)” value ([2]; 30-mg Compound A (n = 40)) was “(15.0) %”, the “Orthostatic hypotension (under asymptomatic blood pressure reduction), patients, no.” value ([2]; 30-mg Compound A (n = 40)) was 6 and the “Orthostatic hypotension (under symptomatic blood pressure reduction), patients (%)” value ([2]; 30-mg Compound A (n = 40)) was “(2.5) %”. For the same compound, the “Orthostatic hypotension (under symptomatic blood pressure reduction), patients, no.” value ([2]; 30-mg Compound A (n = 40)) was 1, the “Asymptomatic blood pressure reduction, patients (%)” value ([2]; 30-mg Compound A (n = 40)) was “(22.5) %” and the “Asymptomatic blood pressure reduction, patients, no.” value ([2]; 30-mg Compound A (n = 40)) was 9. The “Symptomatic blood pressure reduction, patients (%)” value ([2]; 30-mg Compound A (n = 40)) was “(5.0) %”, the “Symptomatic blood pressure reduction, patients, no.” value ([2]; 30-mg Compound A (n = 40)) was 2 and the “Dose reductions, patients (%)” value ([2]; 60-mg Compound A (n = 42)) was “(11.9) %”. For the same compound, the “Dose reductions, patients, no.” value ([2]; 60-mg Compound A (n = 42)) was 5, the “Orthostatic hypotension (under asymptomatic blood pressure reduction), patients (%)” value ([2]; 60-mg Compound A (n = 42)) was “(26.2) %” and the “Orthostatic hypotension (under asymptomatic blood pressure reduction), patients, no.” value ([2]; 60-mg Compound A (n = 42)) was 11. The “Orthostatic hypotension (under symptomatic blood pressure reduction), patients (%)” value ([2]; 60-mg Compound A (n = 42)) was “(9.5) %”, the “Orthostatic hypotension (under symptomatic blood pressure reduction), patients, no.” value ([2]; 60-mg Compound A (n = 42)) was 4 and the “Asymptomatic blood pressure reduction, patients (%)” value ([2]; 60-mg Compound A (n = 42)) was “(31.0) %”. The “Asymptomatic blood pressure reduction, patients, no.” value ([2]; 60-mg Compound A (n = 42)) was 13, the “Symptomatic blood pressure reduction, patients (%)” value ([2]; 60-mg Compound A (n = 42)) was “(14.3) %” and the “Symptomatic blood pressure reduction, patients, no.” value ([2]; 60-mg Compound A (n = 42)) was 6. For the same compound, the “marked laboratory abnormalities (in words)” value ([2]; among treatment groups) was “No notable imbalances in marked laboratory abnormalities among treatment groups”.
